According to ChEMBL document CHEMBL1811753, “Discovery of potent and selective inhibitors of human platelet-type 12- lipoxygenase” (J Med Chem, 2011):
Blank lines part the entries; values can stand above or below the molecule they belong to. Calls of active or inactive are those of the source. The rule behind the calls is not given here.

Assays:
[1] = molecular target: T1, Polyunsaturated fatty acid lipoxygenase ALOX12 (Homo sapiens, UniProt P18054); test: Inhibition of human platelet-type N-terminally His6-tagged 12-lipoxygenase assessed as conjugated diene product formation using arachidonic acid by UV-vis spectrophotometer analysis
T1 sequence (P18054 whole entry): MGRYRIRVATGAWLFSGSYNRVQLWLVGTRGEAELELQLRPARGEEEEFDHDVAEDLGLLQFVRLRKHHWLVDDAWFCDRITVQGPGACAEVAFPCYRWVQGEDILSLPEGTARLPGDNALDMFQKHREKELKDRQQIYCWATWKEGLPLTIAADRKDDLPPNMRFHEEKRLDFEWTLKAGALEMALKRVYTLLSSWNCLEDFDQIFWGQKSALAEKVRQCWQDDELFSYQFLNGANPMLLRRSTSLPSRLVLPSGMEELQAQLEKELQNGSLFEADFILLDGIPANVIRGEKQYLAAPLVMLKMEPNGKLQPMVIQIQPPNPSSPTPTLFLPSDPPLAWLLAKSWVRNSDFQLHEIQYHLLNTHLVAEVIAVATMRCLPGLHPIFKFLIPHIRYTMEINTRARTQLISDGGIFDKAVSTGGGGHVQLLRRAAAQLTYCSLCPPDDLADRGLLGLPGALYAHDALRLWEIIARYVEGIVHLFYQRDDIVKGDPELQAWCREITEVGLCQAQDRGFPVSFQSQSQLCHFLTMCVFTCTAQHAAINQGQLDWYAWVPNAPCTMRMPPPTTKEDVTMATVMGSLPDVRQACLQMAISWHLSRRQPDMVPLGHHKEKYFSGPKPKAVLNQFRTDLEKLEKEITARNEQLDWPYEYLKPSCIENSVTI

[2] = molecular target: T2, Polyunsaturated fatty acid lipoxygenase ALOX15 (Homo sapiens, UniProt P16050); test: Inhibition of human reticulocyte N-terminally His6-tagged 15-lipoxygenase-1 assessed as conjugated diene product formation using arachidonic acid by UV-vis spectrophotometer analysis
T2 sequence (P16050 whole entry): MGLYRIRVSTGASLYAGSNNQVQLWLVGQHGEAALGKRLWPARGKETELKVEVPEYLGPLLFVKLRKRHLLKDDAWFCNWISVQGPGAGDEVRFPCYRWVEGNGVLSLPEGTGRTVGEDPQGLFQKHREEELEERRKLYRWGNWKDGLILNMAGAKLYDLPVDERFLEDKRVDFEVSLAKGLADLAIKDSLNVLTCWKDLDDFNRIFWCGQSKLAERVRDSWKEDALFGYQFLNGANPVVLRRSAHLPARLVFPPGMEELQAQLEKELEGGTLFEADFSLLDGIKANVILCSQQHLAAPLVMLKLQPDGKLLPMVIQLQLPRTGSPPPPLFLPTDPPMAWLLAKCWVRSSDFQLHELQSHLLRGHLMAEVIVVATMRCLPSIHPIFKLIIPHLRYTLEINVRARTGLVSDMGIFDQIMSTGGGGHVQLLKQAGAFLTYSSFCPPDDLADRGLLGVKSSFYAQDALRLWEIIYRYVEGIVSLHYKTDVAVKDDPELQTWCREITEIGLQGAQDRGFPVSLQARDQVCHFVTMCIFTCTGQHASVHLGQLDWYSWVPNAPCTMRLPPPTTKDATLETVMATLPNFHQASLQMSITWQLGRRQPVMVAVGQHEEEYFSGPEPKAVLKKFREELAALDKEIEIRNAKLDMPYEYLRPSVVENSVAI

Homo sapiens [3] = organism: Homo sapiens; test: Selectivity ratio of IC50 for human reticulocyte N-terminally His6-tagged 15-lipoxygenase-2 to IC50 for human platelet-type N-terminally His6-tagged 12-lipoxygenase
Homo sapiens [4] = organism: Homo sapiens; test: Selectivity ratio of IC50 for human 5-lipoxygenase to IC50 for human platelet-type N-terminally His6-tagged 12-lipoxygenase
[5] = molecular target: T3, Polyunsaturated fatty acid lipoxygenase ALOX15B (Homo sapiens, UniProt O15296); test: Inhibition of human reticulocyte N-terminally His6-tagged 15-lipoxygenase-2 assessed as conjugated diene product formation using arachidonic acid by UV-vis spectrophotometer analysis
T3 sequence (O15296 whole entry): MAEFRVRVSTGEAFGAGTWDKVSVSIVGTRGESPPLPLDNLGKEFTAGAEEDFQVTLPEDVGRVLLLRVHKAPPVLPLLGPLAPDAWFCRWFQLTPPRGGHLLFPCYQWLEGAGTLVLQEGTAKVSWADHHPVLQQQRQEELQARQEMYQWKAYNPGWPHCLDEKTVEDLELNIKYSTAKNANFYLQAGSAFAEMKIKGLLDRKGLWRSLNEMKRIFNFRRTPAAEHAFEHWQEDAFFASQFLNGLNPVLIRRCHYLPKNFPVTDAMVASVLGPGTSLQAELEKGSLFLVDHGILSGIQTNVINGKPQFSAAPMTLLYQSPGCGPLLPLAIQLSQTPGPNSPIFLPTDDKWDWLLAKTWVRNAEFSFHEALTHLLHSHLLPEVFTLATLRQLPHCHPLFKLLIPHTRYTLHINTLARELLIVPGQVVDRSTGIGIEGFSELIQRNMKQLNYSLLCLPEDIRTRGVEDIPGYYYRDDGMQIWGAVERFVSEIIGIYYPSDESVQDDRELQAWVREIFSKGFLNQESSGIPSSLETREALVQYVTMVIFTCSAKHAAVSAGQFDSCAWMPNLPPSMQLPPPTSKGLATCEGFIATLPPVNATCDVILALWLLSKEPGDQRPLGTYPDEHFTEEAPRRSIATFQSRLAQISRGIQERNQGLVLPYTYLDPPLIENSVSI

[6] = molecular target: T4, Polyunsaturated fatty acid 5-lipoxygenase (Homo sapiens, UniProt P09917); test: Inhibition of human 5-lipoxygenase assessed as conjugated diene product formation using arachidonic acid by UV-vis spectrophotometer analysis
T4 sequence (P09917 whole entry): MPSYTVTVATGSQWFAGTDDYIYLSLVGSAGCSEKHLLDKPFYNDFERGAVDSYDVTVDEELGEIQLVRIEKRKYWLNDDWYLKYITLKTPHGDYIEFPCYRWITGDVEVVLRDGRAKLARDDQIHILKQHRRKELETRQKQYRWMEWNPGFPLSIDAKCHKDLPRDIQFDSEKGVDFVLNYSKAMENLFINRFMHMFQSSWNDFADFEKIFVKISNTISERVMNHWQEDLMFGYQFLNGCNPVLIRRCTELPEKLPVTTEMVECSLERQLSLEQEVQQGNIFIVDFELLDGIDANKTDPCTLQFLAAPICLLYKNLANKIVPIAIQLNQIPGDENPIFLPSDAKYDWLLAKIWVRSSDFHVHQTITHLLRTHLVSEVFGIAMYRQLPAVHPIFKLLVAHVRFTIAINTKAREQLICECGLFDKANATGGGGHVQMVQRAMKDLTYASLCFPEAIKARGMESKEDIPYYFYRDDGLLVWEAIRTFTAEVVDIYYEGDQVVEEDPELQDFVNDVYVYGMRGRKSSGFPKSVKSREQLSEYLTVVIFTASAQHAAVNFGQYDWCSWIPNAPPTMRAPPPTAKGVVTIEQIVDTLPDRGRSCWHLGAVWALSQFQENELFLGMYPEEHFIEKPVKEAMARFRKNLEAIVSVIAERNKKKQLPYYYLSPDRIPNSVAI

Homo sapiens [7] = organism: Homo sapiens; test: Selectivity ratio of IC50 for human reticulocyte N-terminally His6-tagged 15-lipoxygenase-1 to IC50 for human platelet-type N-terminally His6-tagged 12-lipoxygenase
[8] = molecular target: T2, Polyunsaturated fatty acid lipoxygenase ALOX15
[9] = molecular target: T1, Polyunsaturated fatty acid lipoxygenase ALOX12; test: Inhibition of human platelet-type 12-lipoxygenase
[10] = system: Radical scavenging activity; test: Antioxidant activity assessed as DPPH radical scavenging activity at 5 uM; assay type: functional
[11] = molecular target: T5, Polyunsaturated fatty acid lipoxygenase ALOX12 (Homo sapiens) (UniProt P18054); settings: 10 uM
T5 sequence (whole entry): T1 sequence (P18054 whole entry)

[12] = molecular target: T1, Polyunsaturated fatty acid lipoxygenase ALOX12; test: cell-based
[13] = molecular target: T5, Polyunsaturated fatty acid lipoxygenase ALOX12 (Homo sapiens); settings: 100 uM
[14] = molecular target: T5, Polyunsaturated fatty acid lipoxygenase ALOX12 (Homo sapiens); settings: 10 uM; remark: listed apart in the source
[15] = molecular target: T5, Polyunsaturated fatty acid lipoxygenase ALOX12 (Homo sapiens); test: Competitive inhibition of human platelet-type N-terminally His6-tagged 12-lipoxygenase assessed as 12-HPETE formation using arachidonic acid by Michaelis-Menten equation analysis
[16] = molecular target: T5, Polyunsaturated fatty acid lipoxygenase ALOX12 (Homo sapiens); test: Uncompetitive inhibition of human platelet-type N-terminally His6-tagged 12-lipoxygenase assessed as 12-HPETE formation using arachidonic acid by Michaelis-Menten equation analysis

Structure (SMILES): O=C(NC(c1ccco1)c1cc(Cl)c2cccnc2c1O)c1ccccc1 (configuration not stated)
IC50 [1]: > 25 µM

Structure (SMILES): CC(=O)NC(C)c1cc(Cl)c2cccnc2c1O (configuration not stated)
IC50 [1]: > 150 µM

Structure (SMILES): CC(C)(c1ccc(O)c(Br)c1)c1cc(Br)c(O)c(Br)c1
IC50 [8]: 7 µM | IC50 [9]: 5 µM

Structure (SMILES): CC(Cc1ccc(O)c(O)c1)C(C)Cc1ccc(O)c(O)c1 (configuration not stated)
Activity [10]: Active

Structure (SMILES): Oc1c(Br)c(Br)c(Br)c(Br)c1Oc1ccc(Br)cc1Br
IC50 [8]: 0.7 µM | IC50 [9]: 1.8 µM

Structure (SMILES): Cc1ccc(C(=O)NC(c2ccco2)c2cc(Cl)c3cccnc3c2O)cc1 (configuration not stated)
IC50 [1]: > 25 µM

Structure (SMILES): CC(=O)NC(c1ccco1)c1cc(Cl)c2ccc(Cl)nc2c1O (configuration not stated)
IC50 [1]: > 75 µM

Structure (SMILES): CC(=O)NC(c1ccco1)c1cc(Cl)c2ccc(N(C)C)nc2c1O (configuration not stated)
IC50 [1]: > 75 µM

Structure (SMILES): CCC(=O)NC(c1ccco1)c1cc(Cl)c2c(c1O)NCCC2 (configuration not stated)
IC50 [1]: 3 µM

Structure (SMILES): CC(=O)NC(c1cccs1)c1cc(Cl)c2cccnc2c1O (configuration not stated)
IC50 [2]: > 25 µM | Kic [15]: 0.7 µM | Ratio IC50 (Homo sapiens [4]): > 100 | Kiuc [16]: 0.8 µM | IC50 [6]: > 100 µM | Ratio IC50 (Homo sapiens [7]): 25

Structure (SMILES): Oc1c(Cl)cc(Cl)c2cccnc12 [CHLOROXINE]
IC50 [2]: 2.4 µM | IC50 [1]: 1.9 µM | IC50 [5]: 28 µM | IC50 [6]: 3.6 µM

Second part, led by results:

IC50 [2]: > 50 µM | Ratio IC50 (Homo sapiens [3]): > 29 | Ratio IC50 (Homo sapiens [4]): > 29 | IC50 [5]: > 100 µM | IC50 [6]: > 100 µM | Ratio IC50 (Homo sapiens [7]): > 15
Structure (SMILES): CCC(=O)NC(c1cccs1)c1ccc2cccnc2c1O (configuration not stated)

IC50 [1]: > 150 µM
Structure (SMILES): CC(=O)NCc1cc(Cl)c2cccnc2c1O

IC50 [2]: > 50 µM | Ratio IC50 (Homo sapiens [3]): > 100 | Ratio IC50 (Homo sapiens [4]): > 100 | IC50 [5]: > 100 µM | IC50 [6]: > 100 µM | Ratio IC50 (Homo sapiens [7]): > 50
Structure (SMILES): CCC(=O)NC(c1ccco1)c1cc(Cl)c2cccnc2c1O (configuration not stated)

IC50 [1]: > 50 µM
Structure (SMILES): CCC(=O)NC(c1ccc(F)cc1)c1cc(Cl)c2cccnc2c1O (configuration not stated)

IC50 [1]: > 75 µM
Structure (SMILES): CC(=O)NC(c1ccco1)c1cc(Cl)c2ccccc2c1O (configuration not stated)

IC50 [1]: > 75 µM
Structure (SMILES): CC(=O)NC(C)c1cc(F)c2cccnc2c1O (configuration not stated)

IC50 [1]: > 75 µM
Structure (SMILES): CCC(=O)NC(c1ccco1)c1cc(Cl)c2cccnc2c1OC (configuration not stated)

IC50 [1]: > 75 µM
Structure (SMILES): CC(=O)NC(c1ccco1)c1cc(Cl)c2ccc(N3CCCCC3)nc2c1O (configuration not stated)

IC50 [2]: > 25 µM | inhibition [11]: 68.9% | IC50 [12]: 15 µM | inhibition [13]: Active | inhibition [14]: 70%
Structure (SMILES): CCC(=O)NC(c1cccs1)c1cc([N+](=O)[O-])c2cccnc2c1O (configuration not stated)
Activity [10]: inactive

IC50 [1]: > 75 µM
Structure (SMILES): CCC(=O)NC(c1ccc(Br)o1)c1cc(Cl)c2cccnc2c1O (configuration not stated)

IC50 [1]: > 50 µM
Structure (SMILES): CCC(=O)NC(C)c1cc(Cl)c2cccnc2c1O (configuration not stated)
